Measurements taken from ChEMBL document CHEMBL4715889, “Novel amide and imidazole compounds as potent hematopoietic prostaglandin D synthase inhibitors” (Bioorg Med Chem Lett, 2021).
pIC50, pKi: −log10 of the molar value. Values after ≈ are worked out from the molar mass of the structure shown.

How the values were obtained:
[1] = molecular target: T1, Hematopoietic prostaglandin D synthase (Homo sapiens, UniProt O60760); test: Binding affinity to HPGDS (unknown origin) assessed as change in melting temperature by thermal shift assay
[2] = molecular target: T1, Hematopoietic prostaglandin D synthase; test: Inhibition of HPGDS (unknown origin) by fluorescence polarization assay
[3] = molecular target: T1, Hematopoietic prostaglandin D synthase; test: Binding affinity to HPGDS (unknown origin) assessed as change in melting temperature in presence of GSH by thermal shift assay
[4] = molecular target: T1, Hematopoietic prostaglandin D synthase; test: Inhibition of HPGDS (unknown origin) assessed as reduction in reduction in LPS-induced PGD2 level by ELISA
[5] = molecular target: T1, Hematopoietic prostaglandin D synthase; test: Inhibition of HPGDS (unknown origin) assessed as reduction in reduction in GSTase activity relative to control; set-up: concentration or dose not given beside the values; settings: concentration not given here
[6] = Aqueous solubility of compound at pH 7.4; assay type: physicochemical
[7] = Half life in human liver microsomes; assay type: ADME, Microsome
[8] = molecular target: T1, Hematopoietic prostaglandin D synthase; test: Competitive inhibition of human HPGDS using PGH2 as substrate

T1 sequence (O60760 whole entry): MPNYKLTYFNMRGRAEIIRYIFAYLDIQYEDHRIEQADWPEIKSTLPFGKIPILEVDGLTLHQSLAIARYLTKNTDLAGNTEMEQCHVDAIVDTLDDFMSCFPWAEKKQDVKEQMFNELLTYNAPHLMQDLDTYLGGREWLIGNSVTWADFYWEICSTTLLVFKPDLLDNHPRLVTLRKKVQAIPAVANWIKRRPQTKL

Row | Compound | ΔTm [1] | pIC50 [2] | ΔTm [3] | pIC50 [4] | inhibition [5] | solubility [6] | half-life [7] | pKi [8]
1 | O=C(NCc1ccccc1)c1ccc(-c2ccccc2)nc1 | 0.3 °C | 6.91 | 3 °C | 5.91 | 40.4% |  |  | 
2 | CC(C)(O)c1nc(-c2cccc(-c3ncc(-c4cnc(-c5ccccn5)nc4)[nH]3)c2)no1 | 0.4 °C | 5.49 | 0.6 °C |  | 25.5% | 17.5 µM (≈ 7.45 µg/mL) |  | 
3 | c1ccc(C(OC2CCN(CCCc3nnn[nH]3)CC2)c2ccccc2)cc1 |  |  |  |  |  |  |  | 5.30
4 | Cn1c(-c2cnc(-c3ccccc3)nc2)cnc1-c1ccccc1 | 3.1 °C | 7.20 | 3.4 °C | 6.14 | 38.4% |  |  | 
5 | c1ccc(-c2ncc(-c3ccc(-c4ccccn4)nc3)[nH]2)cc1 | 4.2 °C | 7.43 | 5.2 °C | 7.35 | 73.5% |  |  | 
6 | CC(C)(O)c1nc(-c2cccc(CNC(=O)c3ccc(-c4ccccn4)nc3)c2)no1 | 0.1 °C | 7.26 | 2.8 °C | 6.48 | 47.2% |  |  | 
7 | c1ccc(-c2ncc(-c3cnc(-c4ccccn4)nc3)[nH]2)cc1 | 0.2 °C | 5.75 | 0.6 °C | 5.30 | 18.2% |  |  | 
8 | c1ccc(-c2ncc(-c3cnc(-c4cccnc4)s3)cn2)cc1 | 2.1 °C | 6.59 | 2.2 °C | < 5.30 | 29.5% |  |  | 
9 | O=C(NCc1ccccc1)c1ccc(-c2ccccn2)nc1 | 0.1 °C | 7.09 | 2.8 °C | 6.34 | 19.2% |  |  | 
10 | CC(C)(O)c1nc(-c2cccc(-c3ncc(-c4ccc(-c5ccccn5)nc4)[nH]3)c2)no1 | 4.8 °C | 7.10 | 5.4 °C | 7.63 | 76.1% |  |  | 

More lines, in order of rising pIC50 [2], values ahead:

Row | ΔTm [1] | pIC50 [2] | ΔTm [3] | pIC50 [4] | inhibition [5] | solubility [6] | half-life [7] | pKi [8] | Compound
11 | 4.3 °C | 7.45 | 5.2 °C | 7.14 | 83.5% |  |  |  | CC(C)(O)c1nc(-c2cccc(-c3ncc(-c4ccc(-c5ccccc5)nc4)[nH]3)c2)no1
12 | 3.2 °C | 7.50 | 4.4 °C | 7.39 | 85.2% |  |  |  | c1ccc(-c2ccc(-c3cnc(-c4ccccc4)[nH]3)cn2)cc1
13 | 4.3 °C | 7.51 | 4.5 °C | 5.43 | 81.5% |  |  |  | Cc1nc(-c2ccccc2)[nH]c1-c1cnc(-c2ccccc2)nc1
14 | 0.2 °C | 7.56 | 3.3 °C | 6.09 | 62.4% |  |  |  | CC(C)(O)c1nc(-c2cccc(CNC(=O)c3ccc(-c4ccccc4)nc3)c2)no1
15 | 4.9 °C | 7.88 | 5.7 °C | 7.90 | 65.1% |  |  |  | c1ccc(-c2ncc(-c3cnc(-c4cccnc4)[nH]3)cn2)cc1
16 | 0.4 °C | 7.93 | 4.6 °C | 7.62 | 82.5% |  |  |  | O=C(NCc1ccccc1)c1cnc(-c2ccccc2)nc1
17 | 3.6 °C | 8.05 | 3.8 °C | 7.23 | 94.5% |  |  |  | c1ccc(-c2ncc(-c3cnc(-c4ccccc4)[nH]3)cn2)cc1
18 | 0.5 °C | 8.13 | 5.1 °C | 7.94 | 90.9% |  |  |  | CC(C)(O)c1nc(-c2cccc(CNC(=O)c3cnc(-c4ccccn4)nc3)c2)no1
19 | 0.4 °C | 8.14 | 4.95 °C | 8.01 | 83.9% |  |  |  | CC(C)(O)c1nc(-c2cccc(CNC(=O)c3cnc(-c4ccccc4)nc3)c2)no1
20 | 0.2 °C | 8.15 | 4.2 °C | 7.45 | 71.3% |  |  |  | O=C(NCc1ccccc1)c1cnc(-c2ccccn2)nc1
21 | 6.9 °C | 8.23 | 7.1 °C | 7.68 | 92.1% | 3.3 µM (≈ 1.4 µg/mL) | > 1 h |  | CC(C)(O)c1nc(-c2cccc(-c3ncc(-c4cnc(-c5ccccc5)nc4)[nH]3)c2)no1
